Test results published in patent publication US9079895B2, “Morpholino compounds, uses and methods” (University of Dundee, priority 2012, dated 2015).

What was measured:
Details in all cases: average of at least two experiments
5HT6 receptor = 5HT6 receptor (Homo sapiens (Human), UniProt P50406); test: Secondary radioligand binding assay, 5HT6; parameters: key: “—” indicates that a binding interaction was not detected;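 note: competition displacement of radioligand from membranes of transfected cell lines expressing the receptor, 1.5 h at room temperature, bound radioactivity counted by scintillation after filtration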
Chain of 5HT6 receptor (P50406 whole entry): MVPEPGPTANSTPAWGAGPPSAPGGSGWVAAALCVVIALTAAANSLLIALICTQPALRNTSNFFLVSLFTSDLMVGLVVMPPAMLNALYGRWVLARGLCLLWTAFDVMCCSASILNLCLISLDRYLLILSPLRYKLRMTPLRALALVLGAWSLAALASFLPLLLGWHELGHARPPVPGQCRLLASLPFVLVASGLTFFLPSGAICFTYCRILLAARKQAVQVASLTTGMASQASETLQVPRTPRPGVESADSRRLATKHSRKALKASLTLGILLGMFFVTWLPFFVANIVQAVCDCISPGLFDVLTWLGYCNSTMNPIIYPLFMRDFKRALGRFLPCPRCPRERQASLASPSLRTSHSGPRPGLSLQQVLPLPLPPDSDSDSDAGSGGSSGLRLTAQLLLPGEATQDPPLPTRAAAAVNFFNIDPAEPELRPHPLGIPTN
Procedure: (§2) The 250 μl reactions are incubated at room temperature and shielded from light (to prevent photolysis of light-sensitive ligands) for 1.5 hours, then harvested by rapid filtration onto Whatman GF/B glass fiber filters pre-soaked with 0.3% polyethyleneimine using a 96-well Brandel harverster. Four rapid 500 μl washes are performed with chilled Standard Binding Buffer to reduce non-specific binding. Filters are placed in 6 ml scintillation tubes and allowed to dry overnight. The next day, 4 ml of EcoScint scintillation cocktail (National Diagnostics) are added to each tube. The tubes are capped, labeled, and counted by liquid scintillation counting. […] The filter mats are dried, then scintillant is melted onto the filters and the radioactivity retained on the filters is counted in a Microbeta scintillation counter.

5HT1e receptor = 5HT1e receptor (Homo sapiens (Human), UniProt P28566); test: Secondary radioligand binding assay, 5HT1e; parameters: key: “—” indicates that a binding interaction was not detected;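 note: competition binding against a radioligand on membranes from transfected cell lines, 1.5 h at room temperature, bound radioactivity counted by liquid scintillation after filtration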
Chain of 5HT1e receptor (P28566 whole entry): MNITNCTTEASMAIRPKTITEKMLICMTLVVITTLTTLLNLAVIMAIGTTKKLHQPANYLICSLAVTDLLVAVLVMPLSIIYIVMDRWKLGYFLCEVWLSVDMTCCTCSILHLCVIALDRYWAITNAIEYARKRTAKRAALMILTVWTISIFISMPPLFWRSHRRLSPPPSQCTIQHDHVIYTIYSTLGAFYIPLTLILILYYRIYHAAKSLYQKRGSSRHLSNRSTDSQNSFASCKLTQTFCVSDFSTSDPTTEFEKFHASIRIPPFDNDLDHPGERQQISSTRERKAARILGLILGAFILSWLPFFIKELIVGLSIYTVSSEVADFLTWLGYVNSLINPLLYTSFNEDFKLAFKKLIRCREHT
Procedure: as §2

5HT3 receptor = 5HT3 receptor (Homo sapiens (Human), UniProt P46098); test: Secondary radioligand binding assay, 5HT3; parameters: key: “—” indicates that a binding interaction was not detected;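 note: radioligand competition binding on membranes from transfected cell lines, 1.5 h incubation at room temperature, filter-retained radioactivity measured by liquid scintillation counting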
Chain of 5HT3 receptor (P46098 24-478): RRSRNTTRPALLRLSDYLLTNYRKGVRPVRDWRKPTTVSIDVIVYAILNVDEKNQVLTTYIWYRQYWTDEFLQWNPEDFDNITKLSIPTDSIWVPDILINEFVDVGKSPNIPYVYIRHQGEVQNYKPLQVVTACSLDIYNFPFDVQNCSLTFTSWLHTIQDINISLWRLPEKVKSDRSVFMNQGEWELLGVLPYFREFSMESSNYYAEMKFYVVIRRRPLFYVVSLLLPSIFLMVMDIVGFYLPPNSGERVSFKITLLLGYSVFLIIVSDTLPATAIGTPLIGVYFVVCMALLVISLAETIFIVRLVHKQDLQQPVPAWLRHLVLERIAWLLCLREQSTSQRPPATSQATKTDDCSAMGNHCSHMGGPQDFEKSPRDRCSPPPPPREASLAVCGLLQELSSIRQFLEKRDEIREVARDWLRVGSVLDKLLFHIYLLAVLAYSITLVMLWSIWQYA
Procedure: as §2

[1] = molecular target: Alpha1A adrenergic receptor (Homo sapiens (Human), UniProt P35348); test: Secondary radioligand binding assay, Alpha1A; parameters: key to Ki Alpha1A: “—” indicates that a binding interaction was not detected
Chain of Alpha1A adrenergic receptor (P35348 whole entry): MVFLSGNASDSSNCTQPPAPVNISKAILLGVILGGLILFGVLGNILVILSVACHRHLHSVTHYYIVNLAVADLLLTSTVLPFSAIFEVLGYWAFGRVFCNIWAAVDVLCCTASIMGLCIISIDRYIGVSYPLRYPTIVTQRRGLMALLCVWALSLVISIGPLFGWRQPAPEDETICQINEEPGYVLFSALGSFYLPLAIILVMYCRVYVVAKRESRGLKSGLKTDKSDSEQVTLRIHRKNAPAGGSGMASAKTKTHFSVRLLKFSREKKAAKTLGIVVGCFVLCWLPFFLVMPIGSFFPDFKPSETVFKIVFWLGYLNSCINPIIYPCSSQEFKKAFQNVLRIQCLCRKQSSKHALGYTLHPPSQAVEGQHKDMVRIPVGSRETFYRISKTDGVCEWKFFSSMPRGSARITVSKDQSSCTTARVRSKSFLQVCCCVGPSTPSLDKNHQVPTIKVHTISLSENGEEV
From the text: (§1) 1. Secondary Radioligand Binding Assays The detailed experimental protocols for the radioligand and functional receptor assays are available on the NIMH PDSP website at http://pdsp.med.unc.edu/UNC-CH %20Protocol %20Book.pdf. Raw data (dpm) representing total radioligand binding (i.e. specific+non-specific binding) are plotted as a function of the logarithm of the molar concentration of the competitor (i.e. test or reference compound). […] C. Adrenergic Receptors: α1A, α1B, α2A, α2B, α2C, β1, β2, β3 Assay Buffers: For α1 receptors, α1 Binding Buffer (20 mM Tris-HCl, 145 mM NaCl, pH 7.4); for α2 receptors, α2 Binding Buffer (50 mM Tris-HCl, 5 mM MgCl2, pH 7.7); for β receptors, β Binding Buffer (50 mM Tris-HCl, 3 mM MnCl2, pH 7.7) Membrane Fraction Source: Transiently or stably transfected cell lines (e.g. HEK293, COS, CHO, NIH3T3) Protocol adapted from Arango et al. […] (1990), Gen. Psychiatry, 47: 1038-1047. The method is carried out in the manner described for the serotonin receptor assay above, except where described below. Eleven dilutions (5× assay concentration) of the test and reference (see Table 20) compounds are prepared in the appropriate buffer by serial dilution, as previously described. Radioligand is diluted to five times the assay concentration (see Table 21) in the appropriate buffer. […] Four rapid 500-μl washes are performed with chilled distilled water (for α1 and β receptors) or 0.1% polyethyleneimine (for α2 receptors) to reduce non-specific binding. Filters are placed in 6 ml scintillation tubes and allowed to dry overnight and the samples are treated to obtain data as described above. [table]

5HT5 receptor = 5HT5 receptor (Homo sapiens (Human), UniProt P47898); test: Secondary radioligand binding assay, 5HT5; parameters: key: “—” indicates that a binding interaction was not detected;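 note: competitive radioligand displacement on membranes from transfected cell lines, incubated at room temperature in the dark, filter-retained radioactivity counted by liquid scintillation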
Chain of 5HT5 receptor (P47898 whole entry): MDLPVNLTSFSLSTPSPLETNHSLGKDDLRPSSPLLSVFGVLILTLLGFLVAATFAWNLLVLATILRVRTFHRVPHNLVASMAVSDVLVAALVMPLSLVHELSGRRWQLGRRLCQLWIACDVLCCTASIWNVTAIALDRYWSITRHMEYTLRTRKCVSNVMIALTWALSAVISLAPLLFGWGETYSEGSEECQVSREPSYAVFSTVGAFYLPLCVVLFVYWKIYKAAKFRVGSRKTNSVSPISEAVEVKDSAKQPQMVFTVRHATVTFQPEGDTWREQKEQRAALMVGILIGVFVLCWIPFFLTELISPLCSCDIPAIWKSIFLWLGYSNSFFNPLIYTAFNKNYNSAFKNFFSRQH
Procedure: as §2

5HT2b receptor = 5HT2b receptor (Homo sapiens (Human), UniProt P41595); test: Secondary radioligand binding assay, 5HT2b; parameters: key to Ki 5HT2b: “—” indicates that a binding interaction was not detected;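 note: competition binding against a radioligand on membranes from transfected cell lines, 1.5 h incubation at room temperature, filter-retained radioactivity counted by liquid scintillation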
Chain of 5HT2b receptor (P41595 whole entry): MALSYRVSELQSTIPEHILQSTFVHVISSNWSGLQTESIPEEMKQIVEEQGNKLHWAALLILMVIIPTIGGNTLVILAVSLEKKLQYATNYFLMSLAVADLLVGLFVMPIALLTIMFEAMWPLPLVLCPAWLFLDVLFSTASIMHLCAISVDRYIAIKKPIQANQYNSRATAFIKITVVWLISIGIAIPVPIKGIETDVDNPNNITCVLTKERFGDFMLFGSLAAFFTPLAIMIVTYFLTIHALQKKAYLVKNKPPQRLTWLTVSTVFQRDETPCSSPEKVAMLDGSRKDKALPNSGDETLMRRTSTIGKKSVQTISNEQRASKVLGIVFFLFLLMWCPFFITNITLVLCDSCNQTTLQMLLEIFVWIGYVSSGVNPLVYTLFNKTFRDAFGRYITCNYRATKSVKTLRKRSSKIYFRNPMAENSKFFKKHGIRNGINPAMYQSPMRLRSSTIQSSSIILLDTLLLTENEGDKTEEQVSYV
Procedure: as §2

5HT4 receptor = 5HT4 receptor (Homo sapiens (Human), UniProt Q13639); test: Secondary radioligand binding assay, 5HT4; parameters: key: “—” indicates that a binding interaction was not detected
Chain of 5HT4 receptor (Q13639 whole entry): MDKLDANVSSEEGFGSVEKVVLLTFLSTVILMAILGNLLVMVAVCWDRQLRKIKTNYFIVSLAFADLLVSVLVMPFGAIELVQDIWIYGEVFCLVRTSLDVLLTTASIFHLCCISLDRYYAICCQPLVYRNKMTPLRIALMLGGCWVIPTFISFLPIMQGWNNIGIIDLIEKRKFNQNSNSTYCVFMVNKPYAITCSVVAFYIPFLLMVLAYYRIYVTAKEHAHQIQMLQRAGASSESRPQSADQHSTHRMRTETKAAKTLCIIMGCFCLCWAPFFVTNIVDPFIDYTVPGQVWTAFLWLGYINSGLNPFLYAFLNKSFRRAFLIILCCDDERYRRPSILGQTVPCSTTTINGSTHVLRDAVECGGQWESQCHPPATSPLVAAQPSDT
Procedure: 1. Secondary Radioligand Binding Assays The detailed experimental protocols for the radioligand and functional receptor assays are available on the NIMH PDSP website at http://pdsp.med.unc.edu/UNC-CH %20Protocol %20Book.pdf. Assay Buffer: Standard Binding Buffer (50 mM Tris-HCl, 10 mM MgCl2, 1 mM EDTA, pH 7.4) Membrane Fraction Source: Transiently or stably transfected cell lines (e.g., HEK293, COS, CHO, NIH3T3) Protocol adapted from Roth et al. (1986), J. Pharmacol. Exp. Ther., 238(2): 480-485; and Roth et al. (1994), J. Pharmacol. Exp. Ther., 268(3): 1403-1410. […] A similar stock of a reference compound (positive control) is also prepared. […] Radioligand is diluted to five times the assay concentration (see Table 18) in Standard Binding Buffer. Typically, the assay concentration of radioligand is a value between one half the KD and the KD of a particular radioligand at its target. 50 μl aliquots of radioligand are dispensed into the wells of a 96-well plate containing 100 μl of Standard Binding Buffer. Then, duplicate 50 μl aliquots of the test and reference compound dilutions are added. Finally, crude membrane fractions of cells expressing recombinant target (prepared from 10 cm plates by harvesting PBS-rinsed monolayers, resuspending and lysing in chilled, hypotonic 50 mM Tris-HCl, pH 7.4, centrifuging at 20,000×g, decanting the supernatant and storing at −80° C.; typically, one 10 cm plate provides sufficient material for 24 wells), are resuspended in 3 ml of chilled Standard Binding Buffer and homogenized by several passages through a 26 gauge needle, then 50 μl are dispensed into each well. […] Four rapid 500 μl washes are performed with chilled Standard Binding Buffer to reduce non-specific binding. Filters are placed in 6 ml scintillation tubes and allowed to dry overnight. The next day, 4 ml of EcoScint scintillation cocktail (National Diagnostics) are added to each tube. The tubes are capped, labeled, and counted by liquid scintillation counting. For higher throughput assays, bound radioactivity is harvested onto 0.3% polyethyleneimine-treated, 96-well filter mats using a 96-well Filtermate harvester. The filter mats are dried, then scintillant is melted onto the filters and the radioactivity retained on the filters is counted in a Microbeta scintillation counter. Raw data (dpm) representing total radioligand binding (i.e. specific+non-specific binding) are plotted as a function of the logarithm of the molar concentration of the competitor (i.e. test or reference compound).

[2] = molecular target: Alpha1B adrenergic receptor (Homo sapiens (Human), UniProt P35368); test: Secondary radioligand binding assay, Alpha1B; parameters: key to Ki Alpha1B: “—” indicates that a binding interaction was not detected
Chain of Alpha1B adrenergic receptor (P35368 whole entry): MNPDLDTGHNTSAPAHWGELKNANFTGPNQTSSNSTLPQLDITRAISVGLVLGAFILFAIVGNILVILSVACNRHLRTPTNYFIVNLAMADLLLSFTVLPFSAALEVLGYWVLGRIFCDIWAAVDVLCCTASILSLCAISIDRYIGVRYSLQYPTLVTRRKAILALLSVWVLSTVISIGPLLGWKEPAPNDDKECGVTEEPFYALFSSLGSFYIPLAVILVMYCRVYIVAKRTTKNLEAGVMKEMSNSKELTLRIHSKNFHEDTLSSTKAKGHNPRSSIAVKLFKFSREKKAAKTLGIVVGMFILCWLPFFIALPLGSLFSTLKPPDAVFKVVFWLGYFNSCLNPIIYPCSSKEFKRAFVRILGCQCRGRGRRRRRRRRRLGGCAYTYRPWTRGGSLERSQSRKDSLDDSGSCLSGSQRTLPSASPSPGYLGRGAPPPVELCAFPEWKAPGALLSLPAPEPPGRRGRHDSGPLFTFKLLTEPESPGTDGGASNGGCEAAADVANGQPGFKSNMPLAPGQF
From the text: as §1

SMILES	Ki 5HT6 (5HT6 receptor)	Ki 5HT1e (5HT1e receptor)	Ki 5HT3 (5HT3 receptor)	Ki Alpha1A [1]	Ki 5HT5 (5HT5 receptor)	Ki 5HT2b (5HT2b receptor)	Ki 5HT4 (5HT4 receptor)	Ki Alpha1B [2]	Ki (5HT2b receptor)	Ki [1]	Ki [2]
C[C@@H]1Cc2ccccc2N1C(=O)CN1CCO[C@@H](COc2ccncc2)C1 [Compound 67]	—	—	—	—	—	—	—	—			
CC1Cc2ccccc2N1C(=O)CN1CCO[C@@H](COc2cccc(Cl)c2)C1 (some centres unmarked) [Compound 65]	—	—	—	—	—		—	—	0.333 µM		
c1cncc(OC[C@H]2CN(CCN3CCc4ccccc43)CCO2)c1 [Compound 21r, (R)-4-(2-(Indolin-1-yl)ethyl)-2-((pyridin-3-yloxy)methyl)morpholine]	—	—	—	—	—	—	—	—			
Cc1ccc(OC[C@@H]2CN(CCN3CCc4ccccc43)CCO2)cn1 [Compound 28s, (S)-4-(2-(Indolin-1-yl)ethyl)-2-(((6-methylpyridin-3-yl)oxy)methyl)morpholine]	—	—	—	—	—	—	—	—			
Cc1ccccc1OC[C@H]1CN(CC(=O)N2c3ccccc3CC2C)CCO1 (some centres unmarked) [Compound 66]	—	—	—	—	—		—	—	0.77 µM		
O=C(CN1CCO[C@H](COc2cccnc2)C1)N1CCc2ccccc21 [Compound 20s, (S)-1-(Indolin-1-yl)-2-(2-((pyridin-3-yloxy)methyl)morpholino)ethanone]	—	—	—	—	—		—	—	7.64 µM		
O=C(CN1CCO[C@@H](COc2cccnc2)C1)N1CCc2ccccc21 [Compound 20r, (R)-1-(Indolin-1-yl)-2-(2-((pyridin-3-yloxy)methyl)morpholino)ethanone]	—	—	—	—	—		—	—	8.81 µM		
Cc1ncccc1OC[C@H]1CN(CC(=O)N2c3ccccc3CC2C)CCO1 (some centres unmarked) [Compound 62]	—	—	—	—	—		—	—	5.18 µM		
O=C(CN1CCO[C@@H](COc2ccccn2)C1)N1CCc2ccccc21 [Compound 14r, (R)-1-(Indolin-1-yl)-2-(2-((pyridin-2-yloxy)methyl)morpholino)ethanone]	—	—	—	—	—	—	—	—			
O=C(CN1CCO[C@H](COc2ccccc2)C1)N1CCc2ccccc21 [Compound 18s, (S)-1-(Indolin-1-yl)-2-(2-(phenoxymethyl)morpholino)ethanone]	—	—	—	—	—		—	—	6.42 µM		
COc1cccc(OC[C@@H]2CN(CCN3CCc4ccccc43)CCO2)c1 [Compound 25s, (S)-4-(2-(Indolin-1-yl)ethyl)-2-((3-methoxyphenoxy)methyl)morpholine]	—	—	—		—		—	—		8.35 µM	
Clc1cccc(OC[C@@H]2CN(CCN3CCc4ccccc43)CCO2)c1 [Compound 23s, (S)-2-((3-chlorophenoxy)methyl)-4-(2-(indolin-1-yl)ethyl)morpholine]	—	—	—		—		—			9.04 µM	6.64 µM
Clc1cccc(OC[C@H]2CN(CCN3CCc4ccccc43)CCO2)c1 [Compound 23r, (R)-2-((3-Chlorophenoxy)methyl)-4-(2-(indolin-1-yl)ethyl)morpholine]	—	—	—	—	—		—	—			
